Earlier results as cited in US20030181475A1, “Method of administering buprenorphine to treat depression” (EURO-CELTIQUE S.A., priority 2002, published 2003).

Tested on: depressed patients
Details: literature clinical reports

| Molecule | anti-depressive / therapeutic effect in depressed patients |
| --- | --- |
| COc1ccc2c3c1O[C@H]1[C@@H](O)C=C[C@H]4[C@@H](C2)N(C)CC[C@@]341 [codeine] | no anti-depressive effect |
| β-endorphin (YGGFMTSEKSQTPLVTLFKNAIIKNAYKKGE; Beta-endorphin; UniProt P01189 237-267, looked up) [an endogenous opioid] | no or little observable therapeutic effect |
| CCC(=O)C(CC(C)N(C)C)(c1ccccc1)c1ccccc1 (centres unmarked) [methadone] | conflicting |
| COc1cccc(C2(O)CCCCC2CN(C)C)c1 (centres unmarked) [tramadol] | helped a patient with refractory major depression |
| CN1CC[C@]23c4c5ccc(O)c4O[C@H]2[C@@H](O)C=C[C@H]3[C@H]1C5 [morphine] | conflicting |
